{
  "source": "patent US20160051536A1",
  "about": "“COMPOSITIONS TO ALLEVIATE PRESYSTEMIC METABOLISM OF OPIOIDS” (VIRGINIA COMMONWEALTH UNIVERSITY, priority 2013, published 2016)",
  "data": [
    {"test_system": "not given", "assay": "not given", "conditions": "in words; cited from earlier work", "values": [
      {"compound": "C=CCN1CC[C@]23c4c5ccc(O)c4O[C@H]2C(=O)CC[C@@]3(O)[C@H]1C5", "note": "[naloxone]", "oral bioavailability": "low"}
    ]},
    {"test_system": "UGT", "assay": "Effect of inhibitors on buprenorphine-glucuronide formation in LS180 cells", "conditions": "buprenorphine 10 μM, inhibitor 100 μM, 2 hours, vs control, p<0.05, n.d. = glucuronide not detected", "procedure": "Unless otherwise indicated, the in vitro experiments described in the following section were conducted using human colon adenocarcinoma LS180 cells.\nHuman intestinal cells (LS180) were cultured in Dulbecco's modified Eagle's medium (DMEM) supplemented with 10% fetal bovine serum and 1% non-essential amino acids in microplates. […] The cells were rinsed with DPBS, aspirated, and the solutions (37° C.) were added to the cells and incubated for 2 hours. The reactions were stopped and protein was precipitated by adding 20% acetonitrile. After freezing (−80° C.) and thawing, samples were centrifuged and analyzed by HPLC using an Alltima HP C18 column (4.6×100 mm, 3 μm) with gradient elution (mobile phase A: acetonitrile; mobile phase B: 10% acetonitrile, 90% aqueous 25 mM ammonium acetate; 0-78% A) followed by detection by fluoresence (excitation 283 nm, emission 346 nm) and quantitation using Waters Empower 2 software. Results were analyzed by one-way ANOVA with Dunnett's post-test (control vs. inhibitors); asterisk designates p<0.05; n.d. designates not detected.", "values": [
      {"compound": "COc1cc(C2Oc3cc([C@H]4Oc5cc(O)cc(O)c5C(=O)[C@@H]4O)ccc3OC2CO)ccc1O", "note": "(stereo partly shown) [silybin]", "formation of buprenorphine glucuronide": "significantly decreased"},
      {"compound": "COC(=O)c1ccc(O)cc1", "note": "[methylparaben]", "formation of buprenorphine glucuronide": "trend toward a decrease"},
      {"compound": "COc1cc(/C=C/C(=O)CC(=O)/C=C/c2ccc(O)c(OC)c2)ccc1O", "note": "[curcumin]", "formation of buprenorphine glucuronide": "not detected"},
      {"compound": "COc1cc(C=O)ccc1O", "note": "[vanillin]", "formation of buprenorphine glucuronide": "significantly decreased"},
      {"compound": "C=CCc1ccc(O)c(OC)c1", "note": "[eugenol]", "formation of buprenorphine glucuronide": "significantly decreased"},
      {"compound": "Oc1ccc(C=Cc2cc(O)cc(O)c2)cc1", "note": "[resveratrol]", "formation of buprenorphine glucuronide": "not detected"},
      {"compound": "C=CCc1ccc(O)c(-c2cc(CC=C)ccc2O)c1", "note": "[magnolol]", "formation of buprenorphine glucuronide": "significantly decreased"},
      {"compound": "COc1ccccc1O", "note": "[guaiacol]", "formation of buprenorphine glucuronide": "significantly decreased"},
      {"compound": "O=c1c(O)c(-c2ccc(O)c(O)c2)oc2cc(O)cc(O)c12", "note": "[quercetin]", "formation of buprenorphine glucuronide": "not detected"},
      {"compound": "CCOc1cc(C2OCC(C)O2)ccc1O", "note": "(stereo not shown) [ethyl vanillin propylene glycol acetal]", "formation of buprenorphine glucuronide": "significantly decreased"},
      {"compound": "CC=Cc1ccc(O)c(OC)c1", "note": "[isoeugenol]", "formation of buprenorphine glucuronide": "not detected"},
      {"compound": "CC(=O)CCc1ccc(O)cc1", "note": "[rasketone]", "formation of buprenorphine glucuronide": "significantly decreased"},
      {"compound": "COc1c(O)cc2oc3cc(O)c(CC=C(C)C)c(O)c3c(=O)c2c1CC=C(C)C", "note": "[α-mangostin]", "formation of buprenorphine glucuronide": "significantly decreased"},
      {"compound": "CCCOC(=O)c1cc(O)c(O)c(O)c1", "note": "[propyl gallate]", "formation of buprenorphine glucuronide": "not detected"},
      {"compound": "pinoresinol", "formation of buprenorphine glucuronide": "not detected"},
      {"compound": "CCCOC(=O)c1ccc(O)cc1", "note": "[propylparaben]", "formation of buprenorphine glucuronide": "significantly decreased"},
      {"compound": "COc1cc(CCC(C)=O)ccc1O", "note": "[zingerone]", "formation of buprenorphine glucuronide": "significantly decreased"},
      {"compound": "CCOc1cc(C=O)ccc1O", "note": "[ethyl vanillin]", "formation of buprenorphine glucuronide": "significantly decreased"}
    ]},
    {"test_system": "UGT", "assay": "Effect of inhibitors on buprenorphine-glucuronide formation in LS180 cells", "conditions": "buprenorphine 10 μM, single inhibitors 24 μM, pairs 12 μM each, triple 8 μM each, p<0.05", "values": [
      {"compound": "COc1cc(C=O)ccc1O", "note": "[vanillin]", "formation of buprenorphine glucuronide": "significantly inhibited"},
      {"compound": "CC=Cc1ccc(O)c(OC)c1", "note": "[isoeugenol]", "formation of buprenorphine glucuronide": "significantly inhibited"},
      {"compound": "CCCOC(=O)c1cc(O)c(O)c(O)c1", "note": "[propyl gallate]", "formation of buprenorphine glucuronide": "significantly inhibited"}
    ]}
  ]
}
